Several values for one entry are separate records, joined by “and”; a condition that tells them apart may be missing. Equal values may be shown once.
Key:
human Kv1.3 = human Kv1.3 (Homo sapiens, UniProt P22001); test: TEVC electrophysiology, Xenopus oocytes expressing Kv1.3; type: cell-based; details: for effect of 160 mM [K+]O on Kv1.3 inhibition: versus 4 mM [K+]O
Description: We generated human potassium channel cRNA transcripts with the mMessage mMachine kit (Thermo Fisher Scientific, Waltham, MA, USA) according to manufacturer’s instructions, after vector linearization, from cDNA sub-cloned into expression vectors (pTLNx, pXOOM and pMAX). We injected Xenopus laevis oocytes (Xenoocyte, Dexter, MI, USA) with the channel cRNAs (0.5–10 ng) and incubated the oocytes at 16 °C for 1–4 days prior to electrophysiological recording.
We performed TEVC at 20–23 °C with an OC-725C amplifier (Warner Instruments, Hamden, CT, USA) and pClamp10 software. Chemicals for recording and oocyte storage solutions were from Sigma-Aldrich (St. Louis, MO). Bath solution contained (in mM): 96 NaCl, 4 KCl, 1 MgCl2, 1 CaCl2, 10 HEPES (pH 7.6). Pipettes were 1–2 MΩ resistance when filled with 3 M KCl. We recorded currents in response to voltage pulses between −120 mV or −80 mV and +40 mV at 10 mV intervals from a holding potential of −80 mV, to yield current–voltage relationships and examine activation kinetics. We recorded and analyzed data using Clampfit (Molecular Devices, Sunnyvale, CA, USA) and Graphpad Prism software (GraphPad, San Diego, CA, USA), stating values as mean ± SEM. We calculated the voltage dependence of activation (V0.5) by measuring tail currents at a voltage pulse of −30 mV (Kv7) or −50 mV (Kv1), then fitted the tail current/voltage relationship with a single Boltzmann function:1 g=(A1−A2)/{1+exp[V1/2−V/Vs]}y+A2 where g is the normalized tail conductance, A1 is the initial value at −∞, A2 is the final value at +∞, V1/2 is the half-maximal voltage of activation and Vs the slope factor. We fitted activation and deactivation kinetics with single exponential functions.
For wild-type and mutant Kv1.3 channels we calculated conductance–voltage curves from current–voltage relationships recorded in response to voltage pulses between −80 mV to +40 mV in 10 mV intervals from a holding potential of −80 mV. The conductance was calculated by subtracting the driving force (EK):2 Ek=xlnK^+i/K^+o

human CD4 T cells = test: Human CD4 T cell proliferation assay (CFSE dilution, viability dye); type: cell-based; details: 96 h
Source text: Whole blood from de-identified healthy donors, from whom informed consent was obtained, was obtained from the Institute for Clinical and Translational Science (ICTS) research Blood Donor Program at the University of California, Irvine approved and reviewed by the Institutional Review Boards of UCI (IRB protocol HS #2001-2058). All ethical regulations relevant to human research participants were followed. Peripheral blood mononuclear cells (PBMC) were isolated by density gradient separation using lymphocyte separation media (Corning, Cat# 25-072-CV) and SepMate tubes (STEMCELL Technologies, Cat# 85450). Blood was first diluted (1:3) in phosphate-buffered saline (PBS) containing 2% fetal bovine serum (FPS), then overlaid on top of lymphocyte separation media (2:1). CD4+ T cells were isolated from PBMCs using magnetic separation (EasySep Human CD4+ T cell isolation kit, STEMCELL Technologies, Cat# 17952), post isolation purity is typically >95% based on CD4 and CD3 staining. Purified CD4^+ T cells were labeled with 1.6 µM of CellTrace CFSE in AIM V Serum-Free Medium (Gibco Cat# 12055-083) for 8 min[84]. CFSE labeled CD4 T cells were stimulated with anti-CD3- and anti-CD28-coated Dynabeads (Thermo Fisher Scientific, Cat# 111310) at 1:1 ratio in a round-bottom 96-well plate at 37 °C and 5% CO2 in the dark for 96 h in T cell culture medium (RPMI with 10% FCS, L-glutamine, non-essential amino acids, sodium pyruvate, β-mercaptoethanol and penn–strep with amphotericin B). On day 4 cells were stained with Fixable Viability Dye eFluor 780 (FVD-780, Thermo Fisher Scientific, Cat# 65-0865-14) in PBS for 20 min at 4 °C to identify dead cells. Cells were then washed with 1× PBS + 1% FBS twice and transferred to a round-bottom 96-deep well plate (Greiner, Cat# 07-000-119) for flow cytometry. Fluorescence intensity data were acquired using NovoCyte Quanteon (Agilent Technologies) flow cytometer. FSC files were used for gating and analysis using FlowJo analysis software (FlowJo LLC, Ashland, OR). […]

human Kv1.3, sequence (P22001 whole entry): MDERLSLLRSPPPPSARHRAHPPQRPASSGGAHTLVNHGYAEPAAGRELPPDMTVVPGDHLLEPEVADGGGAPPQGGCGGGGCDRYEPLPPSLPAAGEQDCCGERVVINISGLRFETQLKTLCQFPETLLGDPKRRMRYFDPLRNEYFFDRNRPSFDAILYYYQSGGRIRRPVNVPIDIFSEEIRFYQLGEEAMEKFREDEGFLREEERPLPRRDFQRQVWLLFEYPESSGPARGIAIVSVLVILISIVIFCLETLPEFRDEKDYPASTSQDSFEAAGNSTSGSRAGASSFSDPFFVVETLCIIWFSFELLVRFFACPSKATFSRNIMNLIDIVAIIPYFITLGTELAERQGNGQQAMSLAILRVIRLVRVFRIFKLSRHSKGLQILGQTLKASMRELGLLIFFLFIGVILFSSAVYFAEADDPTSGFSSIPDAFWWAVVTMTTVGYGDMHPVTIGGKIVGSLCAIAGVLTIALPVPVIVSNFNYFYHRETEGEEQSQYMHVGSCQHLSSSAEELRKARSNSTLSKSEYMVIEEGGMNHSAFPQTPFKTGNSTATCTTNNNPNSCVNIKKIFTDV

## tannic acid
Human Kv1.3; 0.1 µM tannic acid, control 1.99 ± 0.28
  Current at 0 (mV): 2.39 ± 0.41
Human Kv1.3; 0.1 µM tannic acid, control 4.86 ± 0.31
  Slope: 4.70 ± 0.45 mV
Human Kv1.3; 0.1 µM tannic acid, control -27.75 ± 1.03
  V0.5 Normalized tail current: -27.80 ± 2.36 mV
Human Kv1.3; 1 µM tannic acid
  Current at 0 (mV): 2.23 ± 0.35
  Slope: 4.73 ± 0.52 mV
  V0.5 Normalized tail current: -28.17 ± 3.08 mV
Human Kv1.3; 3 µM tannic acid
  Current at 0 (mV): 1.96 ± 0.31
  Slope: 5.21 ± 0.43 mV
  V0.5 Normalized tail current: -28.73 ± 3.31 mV
Human Kv1.3; 10 µM tannic acid
  Current at 0 (mV): 1.09 ± 0.25
  Slope: 7.44 ± 0.95 mV
  V0.5 Normalized tail current: -25.49 ± 4.06 mV
Human Kv1.3; 30 µM tannic acid
  Current at 0 (mV): 0.72 ± 0.27
  Slope: 10.91 ± 2.27 mV
  V0.5 Normalized tail current: -19.06 ± 4.68 mV
  effect of 160 mM [K+]O on Kv1.3 inhibition: abolished inhibition
Human Kv1.3; 30 µM tannic acid, 2 s depolarizing pulses every 60 s (6 pulses)
  time to steady-state block: 300 ms
Human Kv1.3; 30 µM tannic acid, 200-ms depolarizing pulses every 60 s (13 pulses)
  time to steady-state block: 700 ms
Human Kv1.3; 100 µM tannic acid
  Current at 0 (mV): 0.32 ± 0.08
  Slope: 15.18 ± 2.02 mV
  V0.5 Normalized tail current: -9.91 ± 3.45 mV
  effect of 160 mM [K+]O on Kv1.3 inhibition: significantly reduced the efficacy
Human Kv1.3; prepulse current, read-out: IC50 for Kv1.3 inhibition in oocytes
  IC50: 12 ± 1.3 µM
Human Kv1.3; unclamped oocytes
  concentrations that depolarized the EM of oocytes expressing Kv1.3: above 10 µM
Human CD4 T cells; mean of 9 donors
  LD50 (viability dose–response): 87 µM
Human CD4 T cells; CD3/CD28 Dynabead stimulation, 10% FCS
  IC50 for limiting T cell proliferation (division index): 35 µM and 35.03 µM
Human CD4 T cells; at 50 µM
  cell viability: 76.96 ± 8.922%

Source: PMC11358443, “Polymodal K^+ channel modulation contributes to dual analgesic and anti-inflammatory actions of traditional botanical medicines” (Communications Biology, 2024)
